Entries after “also recorded” stand apart in the source; their conditions may differ.
What was measured:
[1] = system: RCC patient derived xenografts (PDX); test: In vivo efficacy in sixteen RCC patient derived tumor xenograft models (PDX); design: species or system female NMRI nu/nu mice (human tumor xenografts); settings: 16 s.c. RCC PDX models, n = 5 per group; p.o. up to 70 days; Compound A 100 mg/kg QD, axitinib 4 mg/kg BID, cabozantinib 10 mg/kg QD; progression = RTV 173%
Description: All experiments and protocols were approved by animal welfare body and local authorities, and were conducted according to all applicable international, national and local laws and guidelines. Only animals with unobjectionable health were selected to enter testing procedures. The animals (female NMRI nu/nu mice (NMRI-Foxn1^nu); Envigo RMS GmbH, Netherlands) were delivered at the age of four to six weeks and were used for experiments after at least one week of acclimatization. Animals were arbitrarily numbered during tumor implantation using radio frequency identification transponders. Each cage was labeled with a record card indicating all relevant experimental details.
The tumor xenografts were derived from surgical specimens from human cancer patients. Following excision at surgery, tumor pieces were subcutaneously implanted into immunodeficient mice and are therefore referred to as patient-derived tumor xenografts (PDX). Establishment and characterization of the PDXs was performed following their primary implantation into immunodeficient mice (passage 1). The tumor xenografts were passaged until establishment of a stable growth pattern.
Axitinib: A dosing solution of 0.4 mg/ml for dosing at 4 mg/kg/dose was prepared daily by dissolving 6.4 mg dry matter in 16 ml vehicle and stirring for at least 30 min. If necessary, the solution was sonicated for 2 min.
Cabozantinib: A dosing solution of 1 mg/ml for dosing at 10 mg/kg/dose was prepared directly before administration by slowly adding 0.2 ml 100% propylene glycol to 12 mg cabozantinib. It was stirred vigorously on a magnetic stirrer until a fine suspension with clumps formed, followed by vortexing briefly for 15-20 s. A further 3.4 ml propylene glycol was added and the stirring and vortexing steps were repeated. Then 600 µl 100% Tween 80 was added while stirring continuously followed by vortexing briefly for 15-20 s. The solution was then sonicated for 10 min and 7.8 ml D5W was added while stirring slowly. At this stage the solution was clear with lots of air bubbles. Care was taken to exclude these when drawing the suspension into a syringe for administration of therapy.
The resulting white suspension was stirred for two hours on a magnetic stirrer with a hot plate (Phoenix Instruments, model RSM-10HS) at 50° C. The suspension was brought to room temperature and mixed well each time before transferring to a syringe for dosing.
Tumor cell inoculation: Tumor fragments were obtained from xenografts in serial passage in nude mice. After removal from donor mice, tumors were cut into fragments (3-4 mm edge length) and placed in PBS containing 10% penicillin/streptomycin. Recipient animals were anesthetized by inhalation of isoflurane and received unilateral or bilateral tumor implants subcutaneously in the flank.
Randomization: Animals and tumor implants were monitored daily until solid tumor growth was detectable in a sufficient number of animals. At randomization, the volume of growing tumors was determined. […] Animals not used for experiments where available were used as satellite animals for PD sampling. The day of randomization was designated as day 0 of the experiment. The time from implantation to randomization at a standard tumor volume is expressed in days as “Induction time (IT)”. Induction times of tumors are routinely recorded, and a median IT is calculated for characterization purposes.
Tumor measurements and calculations: Tumor length (L) and width (W) were measured twice weekly by calipers. The tumor volume was calculated using the formula L×W^2/2. Relative volumes of individual tumors (individual RTVs) for Day x were calculated by dividing the absolute individual tumor volume on Day x (Tx) by the absolute individual tumor volume of the same tumor on the day of randomization (Tr) multiplied by 100%.

[2] = clinical trials; cited from earlier work

Structure (SMILES) | tumor growth / tumor progression under monotherapy treatment [1] | neurotoxicity [2]
O=C(NCc1cc(F)cc(F)c1)[C@@]1(O)CCN(c2ccc3[nH]ccc3c2)C1=O [Compound A, (S)-3-Hydroxy-1-(1H-indol-5-yl)-2-oxo-pyrrolidine-3-carboxylic acid 3,5-difluoro-benzylamide] | progressed under monotherapy treatment; also recorded: did not strongly inhibit tumor growth, and tumors progressed under treatment | –
CNC(=O)c1ccccc1Sc1ccc2c(/C=C/c3ccccn3)n[nH]c2c1 [axitinib, N-methyl-2-({3-[(1E)-2-(pyridin-2-yl)ethenyl]-1H-indazol-6-yl}sulfanyl)benzamide] | progressed under monotherapy treatment; also recorded: did not strongly inhibit tumor growth, and tumors progressed under treatment | –
COc1cc2nccc(Oc3ccc(NC(=O)C4(C(=O)Nc5ccc(F)cc5)CC4)cc3)c2cc1OC [cabozantinib, N-{4-[(6,7-dimethoxyquinolin-4-yl)oxy]phenyl}-N′-(4-fluorophenyl)cyclopropane-1,1-dicarboxamide] | progressed under monotherapy treatment; also recorded: did not strongly inhibit tumor growth, and tumors progressed under treatment | –
CO[C@@H]1[C@H](OC(=O)/C=C/C=C/C=C/C=C/C(=O)O)CC[C@]2(CO2)[C@H]1[C@@]1(C)O[C@@H]1CC=C(C)C [fumagillin] | – | pronounced neurotoxicity
